Measurements as given in patent US9173871B2, “Oxazole and thiazole compounds as beta-catenin modulators and uses thereof” (New York University, priority 2008, dated 2015).
pIC50: −log10 of the molar value.

What was measured:
HCT116 cells = experiment: Flow cytometry cell cycle analysis of HCT116 cells; type: cell-based; conditions: HCT116, 16 hrs, FIG. 9
Description: In order to test the inhibitory effect of candidate compounds on the transcription of endogenous Wnt/β-cat target genes in HCT116 cells, lysates were prepared from cells that were either treated with candidate small molecules or DMSO control. […] Cell cycle arrest of compound treated HCT116 cells was further confirmed by the reduced number of phosphorylated Histone3 (PH3) positive cells, when cultured in the presence of candidate compounds (FIG. 10).
Flow Cytometry analysis was performed on HCT116 cells treated with candidate compounds for 16 hrs per standard protocols. Briefly, compound treated cells were harvested and washed in 1×PBS followed by fixation in 70% Ethanol at 4° C. for 16 hrs. Cells were then washed in 1×PBS and treated with RNAse at 37° C. for 30′. Following extensive washes in 1×PBS, cellular DNA was stained with 500 ug/ml of Propidium Iodide at room temperature for 10′. Cells were washed again in 1×PBS and analysed by flow cytometry on a FACScalibur machine (Beckson Dickinson) at the NYU flow cytometry core facility.

LNCaP cells [1] = experiment: Flow cytometry DNA content (propidium iodide), LNCaP; type: cell-based; conditions: 20 μM, 24 hr
Description: (§1) A) Cells were cultured in phenol-red free RPMI with either 5% charcoal-stripped FBS supplemented with 0.1 nM R1881 (LNCaP) or 10% charcoal-stripped FBS alone (LNCaP-abl). […] Neutral red uptake assay was performed at the end of treatment to estimate the number of viable cells. […] Fixed cells were stained with Propidium Iodide and analyzed for DNA content using flow cytometry. The first and the second red peak and the dashed area represent G0/G1, M and S-phase cell population, respectively.

[2] = tested on: Wnt/β-catenin STF-LUC reporter in LNCaP-abl cells; experiment: β-catenin/Wnt-responsive STF16-LUC reporter with S37A β-catenin in LNCaP-abl cells; type: cell-based
Description: (§2) LNCaP or LNCaP-abl (ABL) cells were cotransfected with 0.1 μg β-galactosidase and 0.2 μg S37A stabilized β-catenin together with the indicated luciferase reporter constructs; STF16-LUC (β-catenin reporter) and LB1-LUC (AR reporter). […] Luciferase activity was normalized to β-galactosidase expression.
(§3) To determine the IC50 for the β-catenin/Wnt-responsive reporter, cells were cotransfected with β-galactosidase (LacZ) and a constitutively active S37A stabilized β-catenin mutant construct together with the reporter construct, STF16-LUC. To determine the IC50 for the AR-responsive construct, cells were cotransfected with LacZ and the AR responsive reporter construct, ARE-LUC. […] B) AR overexpression circumvents C3 repression of AR-responsive transcription. LNCaP cells were cotransfected with 0.1 μg LacZ and 0.2 μg of the AR responsive reporter construct, ARE-LUC, together with 0, 0.05, 0.1 and 0.2 μg of an AR expression vector. […] Luciferase activity was normalized to LacZ expression.
(§4) 108(15): 5954-63], it had not been determined in prostate cancer cells. […] 69(8): 3332-8].

[3] = Toxicity / maximum tolerated dose in mice; type: in vivo
Description: Importantly, given the role of the Wnt/β-catenin pathway as a regulator of intestinal stem cells [Korinek et al., Nat Genet, 1998. 19(4): 379-83; van de Wetering et al., Cell, 2002. […] Accordingly, mice were injected 5 days/week for 5 weeks at a range of concentrations between 50-125 mg/Kg and compared to vehicle-alone control. Toxicity was monitored by assessing mouse weight, blood counts and mortality. The MTD determination was performed at the fee-for-service, anti-tumor assessment facility at Memorial Sloan Kettering Cancer Center.

[4] = tested on: Wnt/β-catenin STF-LUC reporter in LNCaP; experiment: β-catenin/Wnt-responsive STF16-LUC reporter with S37A β-catenin in LNCaP cells; type: cell-based
Description: as §2, §3, §4

HEK 293 cells = experiment: Neutral red uptake growth assay, HEK293; type: cell-based; conditions: HEK 293, higher levels of C3 (10 or 20 μM daily)
Description: Left panel; HEK293 cells were cultured in DMEM with 10% FBS. […] Neutral red uptake assay was performed at the end of treatment to estimate the number of viable cells.

LNCaP-abl cells [5] = experiment: Flow cytometry DNA content (propidium iodide), LNCaP-abl; type: cell-based; conditions: 20 μM, 24 hr
Description: as §1

LNCaP cells [6] = experiment: Proliferation assay (neutral red uptake), LNCaP; type: cell-based; conditions: 20 μM daily
Description: as §1

LNCaP-abl tumors = experiment: LNCaP-abl xenograft model of castration-resistant prostate cancer in nude mice; type: in vivo; conditions: 100 mg/kg daily, intraperitoneal then intratumor injection, FIG. 23
Description: Tumor volumes were measured twice weekly.
The cell types for xenograft studies include LNCaP, LNCaP-abl and VCaP, which have all been previously utilized for xenograft studies and are able to recur following castration [Korenchuk et al., In Vivo, 2001. 15(2): 163-8; Culig et al., Br J Cancer, 1999. 81(2): 242-51; Graff et al., J Biol Chem, 2000. 275(32): 24500-5]. VCaP cells harbor a wild type androgen receptor and are androgen-dependent for growth [van Bokhoven et al., Prostate, 2003. 57(3): 205-25]. Other characteristics of cells to be considered in such experiments include the mutational status of AR, pTEN, p53, ETS fusion, and the year derived. Following determination of the MTD, 5×10^6 cells are mixed with an equal volume of Matrigel (BD Biosciences) and injected subcutaneously into the right and left flank of a BALB/c nu/nu outbred mouse. […] To assay growth, tumors are measured with Vernier calipers, and the total volume determined by using the formula 0.52×width×height×depth. Tumor growth is measured twice weekly and animals are also weighed twice weekly to assess toxicity.
Methods: Rapidly cycling LNCaP-abl cells (15×10^6) were mixed with an equal volume of Matrigel and injected subcutaneously into the flank region of nude male mice. […] To assess growth, tumors were measured twice weekly with Vernier calipers, and the total volume was determined.

LNCaP-abl cells [7] = experiment: PARP cleavage immunoblot as marker of apoptosis, LNCaP-abl; type: cell-based; conditions: 20 μM, 72 hr
[8] = biological target: Wnt/wg pathway, Wnt-responsive luciferase reporter dTF12; conditions: Gonsalves et al., PNAS 2011; read-out: IC50, β-catenin-responsive luciferase reporter (dTF12); cited from earlier work
[9] = 75 mg/Kg injected 5 days a week for 5 weeks

For `CCc1ccc(-c2nc(CSCC(=O)NCCc3ccccc3)c(C)o2)cc1` [Compound C3], the cell cycle effect (HCT116 cells) was “G0/G1 arrest”, the “cell cycle effect by flow cytometry” value (LNCaP cells [1]) was “growth arrest of the cells in the G0/G1 phase” and the pIC50 [2] was 6.05. For the same compound, the “Wnt reporter gene activity (STF16-LUC)” value ([2]; 20 uM, 24 hr) was “inhibits”, the body weight [3, 9] was “did not lose weight” and the gut toxicity [3, 9] was “no gut toxicity”. For the same compound, the “histology of all major organs” value [3, 9] was “normal”, the “toxicity (overall)” value [3, 9] was “not toxic” and the toxicity ([3]; continuous injection of 20 mg/Kg by mini-pump for 5 weeks) was “no toxicity”. The pIC50 [4] was 6.85, the “Wnt reporter gene activity (STF16-LUC)” value ([4]; 20 uM, 24 hr) was “inhibits” and the 293 cell growth (HEK 293 cells) was “somewhat slow”. For the same compound, the “cell cycle effect by flow cytometry” value (LNCaP-abl cells [5]) was “growth arrest of the cells in the G0/G1 phase”, the cell growth (LNCaP cells [6]) was “completely abolished” and the tumor volume (LNCaP-abl tumors) was “reduced tumor volume to a statistically significant degree”. The “PARP cleavage (apoptosis marker)” value (LNCaP-abl cells [7]) was “Increased levels of PARP cleavage” and the pIC50 [8] was 8.09.
